According to PMC12040169 (PLOS Biology, 2025):

assay: in vitro; conditions: human, hela cells, % viability

Point of comparison: CS(=O)(=O)c1ccc(-n2nnnc2CNC2(CO)CCCC2)cc1 [CBK304134], viability at 28.5 h, 10 µM 91.8%. Against it:
- COc1ncccc1-c1csc(N2CCOC(C)C2)n1 (stereo not drawn) [CBK304118] — lower, 81.8%
- Cc1ccc(Cc2cnc(NC(=O)N3CCC(O)C(F)(F)C3)s2)cc1C (stereo not drawn) [CBK304120] — higher, 94.7%
- CCCc1nc(CN2CCNC(=O)C2c2ccccc2C(F)(F)F)no1 (stereo not drawn) [CBK304123] — higher, 93.2%
- Cc1nsc(NCc2ccccc2CN2CCCC2CO)c1C#N (stereo not drawn) [CBK304124] — lower, 88.8%
- COc1ccc(Br)cc1C1CCCN1C(=O)Cc1cnccc1C (stereo not drawn) [CBK304130] — higher, 93.7%
- CCCC1(C)CCCN(Cc2nnnn2-c2ccc(S(C)(=O)=O)cc2)C1 (stereo not drawn) [CBK304133] — lower, 79.8%
- CCOc1cc(NC2CCN(C(=O)C3(CC(C)C)CCC3)CC2)ncn1 [CBK304136] — higher, 105%
- CCOc1cc(NC2CCN(C(=O)C3CCCC3)C2)ncn1 (stereo not drawn) [CBK304137] — higher, 106%
- CN(Cc1nc2c(s1)CCCC2)C(=O)c1ccc2[nH]cnc2c1 [CBK304138] — lower, 88.4%
- COc1ccc(C(C)NC2CCN(c3ccccn3)CC2)cc1F (stereo not drawn) [CBK304146] — lower, 86.8%
- OC(CSc1ncnc2sc3c(c12)CCC3)Cn1cccn1 (stereo not drawn) [CBK304149] — lower, 72.3%
- CC(=O)Nc1ccc(NC(=O)NCC2CCCO2)c(C(F)(F)F)c1 (stereo not drawn) [CBK304150] — higher, 92.8%
- COCc1nc(CN2CCNC(=O)C2c2ccccc2C(F)(F)F)no1 (stereo not drawn) [CBK304157] — lower, 87.2%
- Cc1ncn(Cc2nc(-c3ccsc3)no2)c(=O)c1C [CBK304158] — higher, 113%
- Cc1cnn(C2CCN(C(=O)NC(C)C3OCCc4sccc43)C2)c1 (stereo not drawn) [CBK304159] — higher, 96.8%
- COCc1ccsc1C(=O)Nc1ncn(CC(=O)N2CCCCCC2)n1 [CBK304160] — higher, 94.9%
- Cc1nc(-c2cccnc2)[nH]c(=O)c1CCC(=O)N1CCNC(C)C1 (stereo not drawn) [CBK304163] — higher, 102%
- CC1(O)CCN(Cc2nnnn2-c2ccc(S(C)(=O)=O)cc2)CC1 [CBK304166] — higher, 99.2%
- CCCCNc1cc(N(C)Cc2cnn(C)c2)nc(N)n1 [CBK304167] — lower, 62.6%
- Cc1noc(C)c1S(=O)(=O)N1CCOCC1c1cccc(F)c1 (stereo not drawn) [CBK304171] — higher, 109%
- CCOC(=O)C(NC(=O)c1cc[nH]c(=O)c1)c1cccc(C)c1C (stereo not drawn) [CBK304174] — higher, 97.1%
- COCCc1noc(CC2CCN(c3ccc(Cl)c(C#N)n3)CC2)n1 [CBK304177] — higher, 97.5%
- COCCc1noc(CC2CCN(c3ncncc3C#N)CC2)n1 [CBK304178] — lower, 90.5%
- CCn1c(C)nnc1CN(CC1CCCO1)C1CCCC1 (stereo not drawn) [CBK304181] — higher, 96.4%
- Cc1cnn(C2CCN(C(=O)CC3OCCc4ccccc43)CC2)c1 (stereo not drawn) [CBK304186] — higher, 93.6%
- Cn1cc(CC2CCN(Cc3ccc(Oc4cnccn4)cc3)C2)cn1 (stereo not drawn) [CBK304188] — higher, 108%
- CCn1c(CN2CCC(c3cc(O)nc(N)n3)C2)nc2c(F)cccc21 (stereo not drawn) [CBK304189] — lower, 87.5%
- CC(C)C(CNCc1cncnc1)c1ccnn1C (stereo not drawn) [CBK304190] — lower, 79.9%
- CCOC(=O)c1cn(CC2CC2)c2cc(F)c(F)cc2c1=O [CBK304195] — higher, 98.1%
- NCC1CCCN1C(=O)c1ccc(Oc2cccc(Br)c2)nc1 (stereo not drawn) [CBK304200] — higher, 95.5%
- c1ccc(Cc2csc(C3CN4CCCC4CO3)n2)cc1 (stereo not drawn) [CBK304202] — lower, 90.2%
- COCCc1noc(CC2CCN(c3nc(C#N)c(Cl)s3)CC2)n1 [CBK304205] — higher, 102%
- O=C(c1cnn(-c2cccc(Cl)c2)c1)N1CCOCC1CC(F)F (stereo not drawn) [CBK304207] — higher, 95.5%
- CCOC(=O)C1CSCCN1C(=O)c1ccc(-c2cnco2)cc1 (stereo not drawn) [CBK304208] — lower, 84.9%
- CCOC(=O)c1cn(CC#N)c2cc(F)c(F)cc2c1=O [CBK304211] — higher, 98.3%
- Cc1nn(C)c(C(=O)Nc2sc3c(c2C#N)CCC(C)C3)c1Br (stereo not drawn) [CBK304212] — higher, 104%
- CC1CCCN(CCCNS(=O)(=O)c2ccc(N3CCCC3=O)cc2)C1 (stereo not drawn) [CBK304213] — lower, 90%
- CCCC(=O)Nc1ccc(C(=O)N2CCN(CC)CC2)cc1 [CBK304218] — lower, 88.6%
- Cc1nc2cc(C(=O)N3CCCCC3CN3CCOCC3)ccc2[nH]1 (stereo not drawn) [CBK304219] — higher, 109%
- CC1CCN(CCCNS(=O)(=O)c2ccc(N3CCCC3=O)cc2)CC1 [CBK304220] — higher, 95.9%
- Cc1nn(CC(=O)N2CCN(C)CC2)c(=O)c2ccccc12 [CBK304221] — higher, 93.3%
- CCn1cc(C2CN(S(=O)(=O)c3cccc(COC)c3)CCO2)cn1 (stereo not drawn) [CBK304222] — higher, 93.7%
- CCn1cc(C2CN(S(=O)(=O)c3cc(C)c(OC)c(C)c3)CCO2)cn1 (stereo not drawn) [CBK304224] — lower, 85.8%
- CCOC(=O)Cc1csc(SC(C)C(=O)N2CCCc3ccccc32)n1 (stereo not drawn) [CBK304228] — higher, 98.9%
- CCN(CC(=O)NC(C)(C)C)Cc1nc(-c2cccc(Br)c2)no1 [CBK304230] — higher, 102%
- CN(Cc1ccsc1)C(=O)c1cccc(S(=O)(=O)NCC2CCCO2)c1 (stereo not drawn) [CBK304232] — lower, 83.7%
- Cc1nc(COc2ccc(Cl)cc2)sc1C(=O)N1CCCCC1C(=O)O (stereo not drawn) [CBK304233] — lower, 87.9%
- COc1ccc(Br)c(C(CO)N(C)C(=O)CC#N)c1 (stereo not drawn) [CBK304240] — lower, 88%
- Cn1ncc2c(NCc3cccc(Cn4cncn4)c3)ncnc21 [CBK304241] — lower, 89.9%
- Cc1nc(C(=O)NCC2CN3CCCN2CC3)ccc1C(=O)O (stereo not drawn) [CBK304242] — higher, 94%
- CN(C(=O)C12CCOCC1CN(c1nccnc1C#N)C2)C1CCCC1 (stereo not drawn) [CBK304244] — higher, 93.6%
- CC(Cc1nc(-c2cnnn2C)cs1)n1cc(Cl)cn1 (stereo not drawn) [CBK304245] — higher, 99.6%
- CC(C)(C)OC(=O)N1CCC(N(CCCO)Cc2ccccn2)CC1 [CBK304246] — higher, 95.1%
- COc1cc(C(C)NC2CCN(c3nc(C)cs3)CC2)ccn1 (stereo not drawn) [CBK304247] — lower, 83.4%
- CC(Cc1nc(-c2nccn2C(C)C)cs1)n1cc(Cl)cn1 (stereo not drawn) [CBK304251] — higher, 102%
- COCC1(O)CCN(Cc2sccc2Cl)CC1 [CBK304252] — higher, 98.7%
- CCOC(=O)C(NC(=O)c1c(C)nn(C)c1C)c1cccc(C)c1C (stereo not drawn) [CBK304253] — higher, 98.9%
- Cc1ncsc1CCS(=O)(=O)N1CCOCC1c1cccc(F)c1 (stereo not drawn) [CBK304254] — lower, 91%
- CC(Cc1nc(-c2cnn(C)n2)cs1)n1cc(Cl)cn1 (stereo not drawn) [CBK304256] — lower, 90.8%
- CCc1ccc(C(O)CNC2CCN(CCOC)CC2)cc1 (stereo not drawn) [CBK304259] — higher, 104%
- Cc1nc(C(=O)NC2CCN(C)CC2)ccc1C(=O)O [CBK304262] — higher, 95.2%
- CC(NCC(O)c1ccco1)c1ccc(C#N)s1 (stereo not drawn) [CBK304265] — lower, 85.9%
- O=C(C1CC(O)CN1)N1CC2(CCCC2)c2c(F)cccc21 (stereo not drawn) [CBK304269C] — higher, 99%
- Cn1cc(C2CNCCN2C(=O)c2coc3ccccc23)cn1 (stereo not drawn) [CBK304270C] — lower, 87%
- CC(N)C1CCCCN1S(=O)(=O)c1ccc(OCc2ncnn2C)cc1 (stereo not drawn) [CBK304272C] — higher, 94.3%
- COc1ccccc1-c1cc2nc(C)cc(NCC3CCCO3)n2n1 (stereo not drawn) [CBK304277] — higher, 96.5%
- O=C(NCCNc1cnccn1)c1cncc(Br)c1 [CBK304278] — higher, 111%
- CC1CCC2(CC1)NC(=O)N(Cc1csc(-c3ccco3)n1)C2=O (stereo not drawn) [CBK304279] — higher, 98.6%
- CC(C)(C)OC(=O)N1CCCC(C(=O)NCCc2ccccn2)C1 (stereo not drawn) [CBK304281] — lower, 86.5%
- O=C(Cc1cn2ccsc2n1)NCCS(=O)(=O)N1CCc2ccccc21 [CBK304282] — lower, 75.4%
- N#Cc1cccnc1N1CCC(NC(=O)c2cccnc2)CC1 [CBK304283] — higher, 103%
- CC1(C)CN(Cc2cccc(-c3ccccn3)c2)CCS1(=O)=O [CBK304284] — higher, 99.8%
- CCOc1ncccc1NC(=O)c1cnc2c(cnn2CC(C)C)c1 [CBK304288] — lower, 83.3%
- Cc1ccc2c(c1)nc(CNC(=O)NCc1ccnc(C)n1)n2C [CBK304292] — higher, 101%
- CCC(=O)Nc1ccc(-c2csc(N(C)C)n2)cc1 [CBK304294C] — higher, 103%
- COc1cc2c(cc1CNC1CCCc3c1cnn3C)OC(C)C2 (stereo not drawn) [CBK304296C] — higher, 94.6%
- CN(C(=O)CN)c1nc2c(s1)CC(c1ccccc1)CC2 (stereo not drawn) [CBK304298C] — lower, 74.1%
- CCc1noc(C)c1C(=O)N1CCC(NC)C1 (stereo not drawn) [CBK304299C] — higher, 100%
- CCCN(C(=O)CCc1ccc(C)cc1C)C1CCNCC1 [CBK304302C] — higher, 109%
- COc1c(Cl)cc(Cl)cc1CNC1CCCc2c1cnn2C (stereo not drawn) [CBK304305C] — lower, 90.6%
- COc1ccc(C)cc1C1(CNC(=O)C2CCCC2N)CCOCC1 (stereo not drawn) [CBK304308C] — higher, 108%
- CNCC1CCN(S(=O)(=O)c2ccc(OCc3ncnn3C)cc2)CC1 [CBK304309C] — higher, 97.6%
- CN(C(=O)CCn1c(=O)oc2cc(Cl)ccc21)C1CCNC1 (stereo not drawn) [CBK304310C] — higher, 101%
- COc1ccc(C)cc1C1(CNC(=O)C2CCC(N)C2)CCOCC1 (stereo not drawn) [CBK304312C] — higher, 107%
- Cn1ncnc1COc1ccc(S(=O)(=O)N2CCCCC2CN)cc1 (stereo not drawn) [CBK304313C] — lower, 82.3%
- CN(C)CCCNC(=O)c1cccc(S(=O)(=O)N2CCCCC2)c1 [CBK304314C] — lower, 91.6%
- CS(=O)(=O)NC1CCN(c2nc(C(=O)O)nc3ccccc23)CC1 [CBK304316N] — higher, 105%
- CC(C)C(=O)Nc1ccc(-c2csc(N3CCN(C)CC3)n2)cc1 [CBK304317C] — higher, 93.5%
- CN1CCN(c2nc(-c3ccc4c(c3)CCC(=O)N4)cs2)CC1 [CBK304319C] — lower, 80.6%
- CCn1cc(NC(=O)C(CC)(CC)CN)ccc1=O [CBK304320C] — lower, 89.2%
- CC(C)c1nn(C)c(N(C)C)c1CNCc1cscn1 [CBK304321C] — lower, 84.4%
- CCn1cc(Cl)c(C(=O)NC2CCN(c3cc(C)n[nH]3)CC2)n1 [CBK304322] — the same, 91.8%
